test: Agilent ZORBAX 300 SB-C18, 150 × 1 mm, 3.5 µm; A: water + 0.01% heptafluorobutyric acid; B: acetonitrile + 0.01% heptafluorobutyric acid; gradient (min/%B) 0/0 100/90; details: stereoisomer not certain

| LC retention time | Compound |
| --- | --- |
| 7.5 min | O=C(O)c1ccccc1CN1CCCC1 |
| 7.12 min | CC1(C)CC(=O)NC(=O)C1 |
| 12.2 min | COC(=O)c1ccc(NC(=O)CC(=O)Nc2ccc(C(=O)OC)cc2)cc1 |
| 7.92 min | Cc1ccc(CN)cc1 |
| 1.33 min | O=C(O)c1cc(=O)[nH]c(=O)[nH]1 |
| 7.17 min | N=C(N=C(N)N)N1CCSCC1 |
| 6.5 min | Cn1cnc2c1c(=O)[nH]c(=O)n2C |
| 11.1 min | CC(C)(C)c1ccc(C(=O)N2CCN(Cc3ccccc3)CC2)cc1 |
| 8.16 min | COc1ccccc1OCCN1CCNCC1 |
| 6.82 min | Cc1oc(C)c(C(N)=O)c1C(N)=O |
| 9.28 min | CCN(CC)CC(=O)Nc1c(C)cc(C)cc1C |
| 11.2 min | O=C(O)C1Cc2ccccc2CN1C(=O)c1ccccc1 (stereo not drawn) |
| 7.75 min | CC(=O)Nc1ccc(Cc2ccncc2)cc1 |
| 17 min | COc1ccc(-c2cc(=O)c3c(ccc4ccccc43)o2)cc1 |
| 11.1 min | Cc1ccc(C(=O)NC(C)c2ccc(O)cc2)cc1 (stereo not drawn) |
| 15.4 min | S=C(NCc1ccccc1)NCc1ccc2[nH]c3c(c2c1)CCCC3 |
| 10.9 min | Cc1nc2ccccc2nc1C=O |
| 7.59 min | Cc1nccnc1C |
| 8.36 min | Cc1cccc[n+]1CC(=O)c1ccccc1 |
| 7.48 min | C[N+]1(CC=C2COCO2)CCCCC1 |
| 8.37 min | c1ccc2c(-n3ccnc3)nccc2c1 |
| 9.09 min | CCC(NC)c1ccccc1OC (stereo not drawn) |
| 10.1 min | CC(C)CC(=O)Nc1cccc(C(=O)O)c1 |

| LC retention time | Compound |
| --- | --- |
| 9 min | O=C1CCCCCN1CP(=O)(O)CCc1ccccc1 |
| 9.44 min | Cc1ccc(-n2cnnn2)nc1 |
| 10.2 min | CCCCCCCCN |
| 9 min | CC1(C)CC(NC(=S)Nc2ccccc2)CC(C)(C)N1 |
| 11.5 min | CNCCCN1c2ccccc2CCc2ccccc21 |
| 9.04 min | C#CCN(CCCC)CCCC |
| 2.5 min | C[N+](C)(C)c1cnc(=O)[nH]c1 |
| 13.9 min | CC(=NNC(=O)CNC(=O)c1ccco1)c1ccc(C(C)(C)C)cc1 |
| 7.13 min | c1nc2cc3ncc[nH]c3cc2n1 |
| 9.62 min | CCN(CC)CCNC(=O)c1ccccc1NC(=O)Nc1ccccc1 |
| 8.36 min | O=C(O)C1CCCN(CCc2ccccc2)C1 (stereo not drawn) |
| 7.61 min | c1ccc2c(c1)CCCN2 |
| 14.9 min | S=C(NC1CCCCC1)NC1CCCCC1 |
| 8.45 min | COc1cccc2c1NCCC2 |
| 7 min | NCc1ccccc1C(=O)O |
| 13.9 min | CC1=NC(=O)NC(c2ccccc2)C1C(=O)OC(C)C(C)(C)C (stereo not drawn) |
| 7.63 min | CC(C)(C)NCC(O)c1ccc(O)c(CO)c1 (stereo not drawn) |
| 13 min | N=c1oc2ccccc2cc1C(=O)Nc1ccc(Oc2ccccc2)cc1 |
| 8.87 min | OCc1ccccc1CNC1CCCCC1 |
| 9.26 min | CC(=O)C(C)(C)C(C)=NN=C(N)c1ccc(C)cc1 |
| 5.28 min | NC1=NCCS1 |
| 15.3 min | Cc1ccccc1-n1nnnc1-c1ccc(-c2nnnn2-c2ccccc2C)cc1 |
| 11.6 min | O=C(O)CC(CNC(=O)CCCCCN1C(=O)c2ccccc2C1=O)c1ccccc1 (stereo not drawn) |

| Compound | LC retention time |
| --- | --- |
| Cc1cc(C=O)c(C)n1C(C)C | 11.1 min |
| CNC(C)C(O)c1ccccc1 (stereo not drawn) | 8.37 min |
| Oc1ccc2c(c1)C13CCCCC1(O)C(C2)NCC3 (stereo not drawn) | 8.57 min |
| CCC(C)C1(CC)C(=O)NC(=O)NC1=O (stereo not drawn) | 9.71 min |
| c1coc(CN2CCNCC2)c1 | 7.3 min |
| Oc1ccc2c3c1OC1C(O)CCC4(O)C(C2)N(CC2CCC2)CCC314 (stereo not drawn) | 8.75 min |
| CN1CCC23CCCCC2C1Cc1ccc(O)cc13 (stereo not drawn) | 9.18 min |

From the RepoRT retention time repository
